Measured values: PubChem BioAssay (NCI)
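Method: 48-hour compound exposure of cells in 96-well plates, five concentrations, linear interpolation of endpoints. The concentration for 50% growth inhibition is given as GI50. TGI marks complete inhibition of growth.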

Experiments:
Assay in all cases: DTP human tumour cell line panel, 48 h
[1] = system: SF-295 CNS
[2] = system: SF-268 CNS
[3] = system: MOLT-4 leukemia
[4] = system: SNB-19 CNS
[5] = system: OVCAR-4 ovarian
[6] = system: IGROV1 ovarian
[7] = system: MALME-3M melanoma
[8] = system: UO-31 renal
[9] = system: TK-10 renal
[10] = system: HL-60(TB) leukemia
[11] = system: SR leukemia
[12] = system: K-562 leukemia
[13] = system: HS 578T breast
[14] = system: HCC-2998 colon
[15] = system: PC-3 prostate
[16] = system: SN12C renal
[17] = system: MDA-MB-231 breast
[18] = system: 786-0 renal
[19] = system: M14 melanoma
[20] = system: SK-MEL-2 melanoma
[21] = system: UACC-62 melanoma
[22] = system: RPMI-8226 leukemia
[23] = system: A498 renal
[24] = system: COLO 205 colon
[25] = system: U251 CNS
[26] = system: OVCAR-3 ovarian
[27] = system: OVCAR-5 ovarian
[28] = system: EKVX NSCLC
[29] = system: NCI/ADR-RES ovarian

## Cc1ccc(CN(C)c2ccc(CO)c(Cl)c2)cc1
[1]
  GI50: 3.37 µM
  TGI: > 76 µM
[2]
  GI50: 30.8 µM
  TGI: > 100 µM
[3]
  GI50: 25.4 µM
  TGI: > 79.7 µM
[4]
  GI50: 34.8 µM
  TGI: > 100 µM
[5]
  GI50: 1.52 µM
  TGI: 13.7 µM
[6]
  GI50: 0.363 µM
  TGI: 2.52 µM
[7]
  GI50: 19.7 µM
  TGI: 59 µM
[8]
  GI50: 6.54 µM
  TGI: 75.9 µM
[9]
  GI50: 0.194 µM
  TGI: 0.938 µM
[10]
  GI50: 15.1 µM
  TGI: 56 µM
[11]
  GI50: 23.7 µM
  TGI: > 86.8 µM
[12]
  GI50: 6.05 µM
  TGI: > 100 µM
[13]
  GI50: 26.2 µM
  TGI: > 100 µM
[14]
  GI50: 13.9 µM
  TGI: > 60.6 µM
[15]
  GI50: 24.2 µM
  TGI: 97.5 µM
[16]
  GI50: 14 µM
  TGI: 49.5 µM
[17]
  GI50: 21.9 µM
  TGI: > 100 µM
[18]
  GI50: 11.8 µM
  TGI: 31.9 µM
[19]
  GI50: 20.9 µM
  TGI: > 65.1 µM
[20]
  GI50: 8.26 µM
  TGI: 31 µM
[21]
  GI50: 0.282 µM
  TGI: 2.71 µM
[22]
  GI50: 10.2 µM
  TGI: > 65.2 µM
[23]
  GI50: 0.056 µM
  TGI: 0.196 µM
[24]
  GI50: 3.24 µM
  TGI: 10.5 µM
[25]
  GI50: 3.92 µM
  TGI: 39.9 µM
[26]
  GI50: 3.06 µM
  TGI: 12.5 µM
[27]
  GI50: 0.446 µM
  TGI: 2.48 µM
[28]
  GI50: 18.6 µM
  TGI: 79.7 µM
[29]
  GI50: 16.1 µM
  TGI: 63.2 µM
